Drawing on PubChem BioAssay (NCI), this text covers TGI and GI50 for 27 compounds.

Values joined by “and” are separate entries in the source; they are usually repeats but may differ in a detail not shown here. Equal values may be shown once.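 Each compound was tested at five concentrations against cells in 96-well plates for 48 hours. Here, GI50 denotes the concentration required for 50% inhibition of growth. TGI marks complete inhibition of growth.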

One test deals with ACHN renal. Put plainly: NCI anticancer screen, dose series, 48 h.
In the case of `Cc1ccccc1C(C#N)C(=O)C(=O)Nc1nc([N+](=O)[O-])cs1` (stereo unspecified), the TGI was greater than 100 µM.
The same measure, in the same setting: then `COC(=O)C(c1[nH]nc2ccccc12)C(C(=O)OC)c1[nH]nc2ccccc12` (stereo unspecified), with greater than 100 µM; and `C#CCNC(=O)NC(CCCNC(=O)OCc1ccccc1)C(=O)OCc1ccccc1` (stereo unspecified), with greater than 100 µM.
On the same count and under the same terms, then `COc1ccc2cc1Oc1ccc(cc1)C[C@H]1c3cc(c(OC)cc3CCN1C)Oc1c(OC)c(OC)cc3c1[C@H](C2)N(C)CC3`, with 15.4 µM and 27.2 µM and 40 µM; and `O=c1[nH]c2ccccc2cc1C(Cl)=C(Cl)Cl`, with greater than 100 µM.
The same measure, in the same setting: then `O=[N+]([O-])[C@@H]1C2C=CC(C2)[C@H]1Cl` (stereo partly specified), with greater than 100 µM; and `COC(=O)C(C#N)=C1c2ccccc2Oc2ccccc21`, with greater than 100 µM; and `N#CC1(c2nc3ccccc3o2)C(=O)C(=O)N(C2C3CC4CC(C3)CC2C4)C(=O)C1=O` (stereo unspecified), with greater than 100 µM.
Take `O=C1NC(c2ccc(O)cc2)C2CCC1C2` (stereo unspecified): the TGI was greater than 100 µM.
In turn, `CCOC(=O)C1(CC)CCCCC(=O)N1` (stereo unspecified) displayed a TGI greater than 100 µM.
In turn, `C=CC1=CSNN1` yielded a TGI greater than 100 µM.
On to `NC(N)=N/N=C(/c1ccccc1)c1ccc(F)cc1`, for which the GI50 was 0.75 µM and the TGI was 16.4 µM.
Compound `O=C(C#Cc1c[nH]c(=O)[nH]c1=O)c1ccccc1Cl` had a TGI of 33.1 µM.
The same measure, in the same setting: then `CC(=O)OC1=C2CC3(C)OC(=O)CC(C)(C)C3=CC=C2C=C(C(C)C)C1=O` (stereo unspecified), with 1.76 µM.
In the case of `CCCCCCCCCCCCCCCC(=O)NCC(COP(=O)([O-])OCC[N+](C)(C)C)OCC` (stereo unspecified), the TGI stood at 29.1 µM.
In the case of `CCC(C)C1NC(=O)c2nc(oc2-c2ccccc2)-c2csc(n2)-c2csc(n2)-c2nc(oc2C)-c2coc(n2)CNC(=O)C(C(C)CC)NC1=O` (stereo unspecified), the GI50 was 0.0188 µM and the TGI was 0.114 µM.
Compound `O=C1CCCN(c2ccccc2)N1` yielded a TGI greater than 100 µM.
Same read-out and setting: then `CN(C)/C(=N/C(=S)Nc1ccccc1)SCc1ccccc1`, with greater than 100 µM; and `CCOC(=O)CC1=Nc2ccccc2SC1`, with greater than 100 µM; and `C=CCSC[C@H](NC(=O)COc1ccccc1)C(=O)NC(C(=O)OCc1ccc([N+](=O)[O-])cc1)=C(C)C`, with greater than 100 µM.

A further test deals with M14 melanoma. Briefly: NCI anticancer screen, dose series, 48 h.
For `CCOc1ccc(NC(=O)CC2Sc3ccccc3NC2=O)cc1` (stereo unspecified), the TGI is greater than 100 µM.
On the same count and under the same terms, then `Cn1cc(NC(=O)c2cc(NC(=O)CCCCCCCCCCC(=O)Nc3cc(C(=O)Nc4cc(C(=O)NCCC(=N)N)n(C)c4)n(C)c3)cn2C)cc1C(=O)NCCC(=N)N`, with greater than 100 µM.
On to `CC(C)(C)OC(=O)n1cc(CNC(=S)Nc2ccccc2)c2ccccc21`, for which the GI50 was 17.7 µM and the TGI is 33.3 µM.
On the same counts, the results for `C1COCCN1.C1COCCN1.N.N.[Cl-].[Pt+2]` are greater than 100 µM and greater than 100 µM.
On the same counts, the results for `C=C1C(O)C2CCC(C)(C)C(=O)C2=C(CC(C)C)C12CC2` (stereo unspecified) are 80.8 µM and greater than 100 µM.
On the same counts, the results for `O=C1/C(=C/c2ccc(F)cc2)CCOc2ccc([N+](=O)[O-])cc21` are 2.22 µM and 5.61 µM.
`Cc1ccccc1C(C#N)C(=O)C(=O)Nc1nc([N+](=O)[O-])cs1` (stereo unspecified) had a TGI greater than 100 µM.
The same measure, in the same setting: with `COC(=O)C(c1[nH]nc2ccccc12)C(C(=O)OC)c1[nH]nc2ccccc12` (stereo unspecified) the figure was greater than 100 µM; with `C#CCNC(=O)NC(CCCNC(=O)OCc1ccccc1)C(=O)OCc1ccccc1` (stereo unspecified), 50.6 µM.
The same measure, in the same setting: with `O=c1[nH]c2ccccc2cc1C(Cl)=C(Cl)Cl` the figure was greater than 100 µM; with `O=[N+]([O-])[C@@H]1C2C=CC(C2)[C@H]1Cl` (stereo partly specified), greater than 100 µM; with `COC(=O)C(C#N)=C1c2ccccc2Oc2ccccc21`, greater than 100 µM.
The same measure, in the same setting: then `N#CC1(c2nc3ccccc3o2)C(=O)C(=O)N(C2C3CC4CC(C3)CC2C4)C(=O)C1=O` (stereo unspecified), with greater than 100 µM.
The compound `O=C1NC(c2ccc(O)cc2)C2CCC1C2` (stereo unspecified) gave a TGI greater than 100 µM.
Same read-out and setting: with `CCOC(=O)C1(CC)CCCCC(=O)N1` (stereo unspecified) the figure was greater than 100 µM.
The same measure, in the same setting: then `C=CC1=CSNN1`, with greater than 100 µM.
With `NC(N)=N/N=C(/c1ccccc1)c1ccc(F)cc1`, the GI50 is 0.209 µM and the TGI was 0.506 µM.
The compound `O=C(C#Cc1c[nH]c(=O)[nH]c1=O)c1ccccc1Cl` had a TGI of 28.8 µM.
Still for that read-out and setting: then `CC(=O)OC1=C2CC3(C)OC(=O)CC(C)(C)C3=CC=C2C=C(C(C)C)C1=O` (stereo unspecified), with 0.912 µM; and `CCCCCCCCCCCCCCCC(=O)NCC(COP(=O)([O-])OCC[N+](C)(C)C)OCC` (stereo unspecified), with 24.7 µM; and `O=C1CCCN(c2ccccc2)N1`, with greater than 100 µM.
Same read-out and setting: then `CN(C)/C(=N/C(=S)Nc1ccccc1)SCc1ccccc1`, with greater than 100 µM; and `CCOC(=O)CC1=Nc2ccccc2SC1`, with greater than 100 µM.
On the same count and under the same terms, with `C=CCSC[C@H](NC(=O)COc1ccccc1)C(=O)NC(C(=O)OCc1ccc([N+](=O)[O-])cc1)=C(C)C` the figure was greater than 100 µM.

A further test deals with HOP-62 NSCLC. Put plainly: NCI anticancer screen, dose series, 48 h.
Consider `CCOc1ccc(NC(=O)CC2Sc3ccccc3NC2=O)cc1` (stereo unspecified), for which the TGI is greater than 100 µM.
On the same count and under the same terms, with `Cn1cc(NC(=O)c2cc(NC(=O)CCCCCCCCCCC(=O)Nc3cc(C(=O)Nc4cc(C(=O)NCCC(=N)N)n(C)c4)n(C)c3)cn2C)cc1C(=O)NCCC(=N)N` the figure was 81.3 µM.
For `CC(C)(C)OC(=O)n1cc(CNC(=S)Nc2ccccc2)c2ccccc21`, the GI50 is 17.2 µM and the TGI came to 38 µM.
Regarding `O=C(Nc1cccc(-n2ccc3c(NC(=O)c4ccccc4)nccc32)c1)c1cccc(C(F)(F)F)c1`, the GI50 is 0.0543 µM and the TGI was found to be 16.5 µM.
Taken in the same sequence, the figures for `C=C1C(O)C2CCC(C)(C)C(=O)C2=C(CC(C)C)C12CC2` (stereo unspecified) were 76.6 µM and greater than 100 µM.
Turning to `O=C1/C(=C/c2ccc(F)cc2)CCOc2ccc([N+](=O)[O-])cc21`, the GI50 is 2.89 µM and the TGI was found to be 8.33 µM.
Regarding `Cc1ccccc1C(C#N)C(=O)C(=O)Nc1nc([N+](=O)[O-])cs1` (stereo unspecified), the TGI is greater than 100 µM.
Take `COC(=O)C(c1[nH]nc2ccccc12)C(C(=O)OC)c1[nH]nc2ccccc12` (stereo unspecified): the TGI is greater than 100 µM.
Still for that read-out and setting: with `C#CCNC(=O)NC(CCCNC(=O)OCc1ccccc1)C(=O)OCc1ccccc1` (stereo unspecified) the figure was greater than 100 µM.
With `COc1ccc2cc1Oc1ccc(cc1)C[C@H]1c3cc(c(OC)cc3CCN1C)Oc1c(OC)c(OC)cc3c1[C@H](C2)N(C)CC3`, the GI50 was 15.1 µM; the TGI was 15.1 µM and 34.2 µM.
